± gives the standard deviation of the averaged measurements.
Key:
[1] = compound: O=C(c1cc(Cc2n[nH]c(=O)c3ccccc23)ccc1F)N1CCN(C(=O)C2CC2)CC1 [OLAPARIB]; assay: surviving fraction relative to DMSO-only wells; higher = less growth inhibition; conditions: exposure time: 5 days
Summary of the method: (§1)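 Lines were retained only if, across three screens, replicate Pearson r was >0.7 and median Z' was >0.3. Viability was measured as CellTiter-Glo luminescence and reported as surviving fraction relative to the median of DMSO-only wells. Readings followed 10 minutes at room temperature, after log-phase tumour cells seeded at 250–500 per well in 384-well plates had been exposed, from 24 hours after seeding, continuously for five days to inhibitors at 0.5, 1, 5, 10, 50, 100, 500 and 1000 nM.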

[2] = compound: C[C@]12CC[C@H](O)CC1=CC[C@@H]1[C@@H]2CC[C@]2(C)C(c3cccnc3)=CC[C@@H]12 [ABIRATERONE]; assay: as above; conditions: exposure time: 5 days
Summary of the method: as §1

Test System	surviving fraction ([1]; 0.5 nM)	surviving fraction ([1]; 1 nM)	surviving fraction ([1]; 5 nM)	surviving fraction ([1]; 10 nM)	surviving fraction ([1]; 50 nM)	surviving fraction ([1]; 100 nM)	surviving fraction ([1]; 500 nM)	surviving fraction ([1]; 1000 nM)	surviving fraction ([2]; 0.5 nM)	surviving fraction ([2]; 1 nM)	surviving fraction ([2]; 5 nM)	surviving fraction ([2]; 10 nM)	surviving fraction ([2]; 50 nM)	surviving fraction ([2]; 100 nM)	surviving fraction ([2]; 500 nM)	surviving fraction ([2]; 1000 nM)
HCC1395 BREAST	0.85 ± 0.034	0.934 ± 0.12	1.06 ± 0.065	1.03 ± 0.037	0.93 ± 0.11	1.02 ± 0.059	0.787 ± 0.096	0.799 ± 0.17	1.07 ± 0.11	1.07 ± 0.015	1.14 ± 0.059	1.13 ± 0.021	1.08 ± 0.12	1.11 ± 0.13	1.146 ± 0.0049	1.19 ± 0.047
HCC1806 BREAST	0.945 ± 0.059	1.01 ± 0.063	1.05 ± 0.099	0.984 ± 0.068	0.896 ± 0.12	0.74 ± 0.041	0.582 ± 0.065	0.567 ± 0.066	1.12 ± 0.11	1.08 ± 0.17	1.19 ± 0.024	1.08 ± 0.021	1.19 ± 0.051	1.2 ± 0.11	1.05 ± 0.085	0.953 ± 0.12
HCC1954 BREAST	0.84 ± 0.13	0.762 ± 0.033	1.1 ± 0.06	0.969 ± 0.038	0.916 ± 0.092	0.6867 ± 0.0046	0.719 ± 0.013	0.497 ± 0.0021	0.838 ± 0.082	1.01 ± 0.13	1.05 ± 0.088	1.13 ± 0.12	1.09 ± 0.23	1.12 ± 0.041	1.08 ± 0.086	1.02 ± 0.014
HCT15 LARGE INTESTINE	1.09 ± 0.06	1.06 ± 0.022	1.01 ± 0.085	1.05 ± 0.065	0.998 ± 0.043	1.04 ± 0.018	0.999 ± 0.055	1.03 ± 0.034	1.08 ± 0.027	1.12 ± 0.024	1.1 ± 0.054	1.1 ± 0.029	1.11 ± 0.026	1.1 ± 0.0051	1.11 ± 0.04	1.1 ± 0.036
HELA CERVIX	1.05 ± 0.064	1.09 ± 0.025	1.05 ± 0.031	1.04 ± 0.036	1.13 ± 0.03	1.18 ± 0.092	1.17 ± 0.014	1.19 ± 0.019	1.08 ± 0.068	1.07 ± 0.037	1.1 ± 0.032	1.03 ± 0.023	1.2 ± 0.048	1.2 ± 0.062	1.23 ± 0.074	1.15 ± 0.055
HOS BONE	1.03 ± 0.022	1.03 ± 0.026	1.06 ± 0.0091	1.012 ± 0.0081	1.02 ± 0.028	1.01 ± 0.023	1.01 ± 0.026	0.953 ± 0.041	1.03 ± 0.02	1.025 ± 0.0032	1.08 ± 0.029	1.02 ± 0.014	1.09 ± 0.019	1.095 ± 0.0072	1.08 ± 0.028	1.06 ± 0.025
HOSMNG BONE	0.877 ± 0.088	0.991 ± 0.034	0.964 ± 0.043	0.933 ± 0.049	1.02 ± 0.056	1.05 ± 0.03	1.06 ± 0.021	0.925 ± 0.14	0.985 ± 0.035	0.99 ± 0.049	1 ± 0.077	0.973 ± 0.039	1.08 ± 0.042	1.1 ± 0.087	1.05 ± 0.096	1.08 ± 0.014
HSSYII SYNOVIAL	0.941 ± 0.039	0.949 ± 0.027	0.882 ± 0.076	0.86 ± 0.013	0.827 ± 0.022	0.769 ± 0.055	0.6097 ± 0.0048	0.484 ± 0.046	0.989 ± 0.03	0.972 ± 0.034	0.937 ± 0.013	0.974 ± 0.027	0.983 ± 0.068	0.966 ± 0.023	0.962 ± 0.048	0.957 ± 0.042
HT1080 SOFT TISSUE	1.02 ± 0.0063	0.977 ± 0.023	0.9903 ± 0.0038	0.965 ± 0.013	0.882 ± 0.037	0.819 ± 0.032	0.7243 ± 0.0055	0.608 ± 0.021	1.01 ± 0.013	1.05 ± 0.015	1.03 ± 0.012	1.02 ± 0.017	1.01 ± 0.023	1.02 ± 0.02	1.04 ± 0.027	0.997 ± 0.019
HU09 BONE	1.01 ± 0.094	0.974 ± 0.031	1.04 ± 0.13	1.13 ± 0.083	0.896 ± 0.063	1.09 ± 0.08	0.851 ± 0.061	0.779 ± 0.096	1.02 ± 0.086	1.11 ± 0.048	1.17 ± 0.18	1.12 ± 0.14	1.21 ± 0.086	1.18 ± 0.13	1.03 ± 0.089	1.05 ± 0.12

From the supplement of paper PMC6045584
